Structures are written as SMILES.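 In this assay, cells in 96-well plates receive the compound at five concentrations for 48 hours. Endpoints are linearly interpolated between the surrounding concentrations. TGI denotes the concentration required for complete inhibition of growth.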

Among the test systems are MDA-MB-435; UO-31 renal; SF-295 CNS; NCI/ADR-RES ovarian; OVCAR-5 ovarian; MOLT-4 leukemia; EKVX NSCLC; MCF7 breast; HT29 colon; SNB-19 CNS; PC-3 prostate; SN12C renal; U251 CNS; NCI-H522 lung; SW-620 colon; HOP-92 NSCLC; MDA-MB-231 breast; HCT-116 colon.
Holding throughout (test): NCI-60 cell line screen, 48 h

As to `CC(=O)OCC1(C)C(O)CCC2(C)C1CCC1CC3CC12CCC3(O)CO` (centres undefined), the TGI in the assay on MDA-MB-435, in the assay on UO-31 renal, with SF-295 CNS, with NCI/ADR-RES ovarian, with OVCAR-5 ovarian and in the assay with MOLT-4 leukemia was above 100 µM each time. In addition, the TGI with EKVX NSCLC, with MCF7 breast, with HT29 colon, in the assay on SNB-19 CNS, with PC-3 prostate and in the assay on SN12C renal was above 100 µM in each case. The TGI in the assay with U251 CNS, in the assay with NCI-H522 lung, in the assay on SW-620 colon, with HOP-92 NSCLC, in the assay with MDA-MB-231 breast and with HCT-116 colon was above 100 µM in each case.
Take `C=C1c2nc3ccccc3n2C=C(c2ccccc2)N1c1ccc(Cl)cc1`: the TGI in the assay on MDA-MB-435 was above 100 µM; in the assay with UO-31 renal, above 100 µM; in the assay with SF-295 CNS, 49.2 µM; in the assay with NCI/ADR-RES ovarian it was above 77.7 µM; with OVCAR-5 ovarian, above 100 µM; in the assay on MOLT-4 leukemia it was above 100 µM. Besides, the TGI in the assay with EKVX NSCLC is 49.2 µM; with MCF7 breast, above 100 µM; with HT29 colon, above 100 µM; in the assay with SNB-19 CNS, above 100 µM; with PC-3 prostate it was above 100 µM; in the assay on SN12C renal, above 100 µM. Also, the TGI was above 70.3 µM in the assay on U251 CNS; above 100 µM in the assay with NCI-H522 lung; above 100 µM with SW-620 colon; 61.2 µM with HOP-92 NSCLC; 51.8 µM in the assay with MDA-MB-231 breast; above 100 µM in the assay with HCT-116 colon.
In the case of `Cc1cc(N2CCOCC2)nc2ccc(Cc3ccc4nc(N5CCOCC5)cc(C)c4c3)cc12`, the TGI with MDA-MB-435, in the assay on UO-31 renal, with SF-295 CNS, in the assay on NCI/ADR-RES ovarian, in the assay on OVCAR-5 ovarian and with MOLT-4 leukemia was above 100 µM in each case. The TGI with EKVX NSCLC is above 100 µM; with MCF7 breast, above 100 µM; with HT29 colon it was 49.3 µM; in the assay with SNB-19 CNS, above 100 µM; with PC-3 prostate it was above 100 µM; in the assay on SN12C renal, above 100 µM. Also, the TGI with U251 CNS was 88.5 µM; in the assay with NCI-H522 lung, above 100 µM; in the assay on SW-620 colon, above 100 µM; in the assay with HOP-92 NSCLC, above 100 µM; with MDA-MB-231 breast it was above 100 µM; with HCT-116 colon, 54.7 µM.
Regarding `CC1=NN(c2ccc(S(=O)(=O)O)cc2)C2(C1)C(Cl)C(=O)N2c1nc2ccccc2s1` (centres undefined), the TGI in the assay on MDA-MB-435, with UO-31 renal, in the assay with SF-295 CNS, in the assay on NCI/ADR-RES ovarian, in the assay with OVCAR-5 ovarian and in the assay on MOLT-4 leukemia was above 100 µM throughout. The TGI with EKVX NSCLC, with MCF7 breast, with HT29 colon, in the assay with SNB-19 CNS, in the assay on PC-3 prostate and in the assay with SN12C renal was above 100 µM throughout. Moreover, the TGI in the assay with U251 CNS, with NCI-H522 lung, in the assay with SW-620 colon, with HOP-92 NSCLC, in the assay on MDA-MB-231 breast and in the assay with HCT-116 colon was above 100 µM in each case.
In the case of `c1ccc2sc(SSSc3nc4ccccc4s3)nc2c1`, the TGI with MDA-MB-435, in the assay with UO-31 renal, in the assay on SF-295 CNS, in the assay with NCI/ADR-RES ovarian, with OVCAR-5 ovarian and in the assay on MOLT-4 leukemia was above 100 µM each time. In addition, the TGI in the assay on EKVX NSCLC, in the assay on MCF7 breast, with HT29 colon, in the assay with SNB-19 CNS, with PC-3 prostate and with SN12C renal was above 100 µM throughout. Moreover, the TGI in the assay with U251 CNS, in the assay on NCI-H522 lung, in the assay with SW-620 colon, in the assay with HOP-92 NSCLC, in the assay on MDA-MB-231 breast and with HCT-116 colon was above 100 µM throughout.
For `Cc1ccc(N2C(=O)C3c4[nH]c5ccc(C)cc5c4C4CCC(C(C)(C)C)CC4C3C2=O)cc1` (centres undefined), the TGI was 55.1 µM in the assay on MDA-MB-435; above 100 µM in the assay on UO-31 renal; 40.7 µM in the assay with SF-295 CNS; 60.2 µM in the assay with NCI/ADR-RES ovarian; 30.8 µM with OVCAR-5 ovarian; 8.06 µM in the assay on MOLT-4 leukemia. The TGI with EKVX NSCLC turned out to be 43.4 µM; in the assay on MCF7 breast, 28.7 µM; in the assay with HT29 colon it was 75.5 µM; in the assay with SNB-19 CNS it was 80.5 µM; with PC-3 prostate it was 70.3 µM; with SN12C renal, 27.3 µM. Besides, the TGI is 27.7 µM with U251 CNS; 39.4 µM in the assay on NCI-H522 lung; 58.7 µM with SW-620 colon; 52.1 µM in the assay with HOP-92 NSCLC; 26.7 µM in the assay with MDA-MB-231 breast; 37.1 µM in the assay with HCT-116 colon.
For the molecule `C=C(COCO)C(C)=O`, the TGI with MDA-MB-435 was 28.3 µM; in the assay with UO-31 renal, 25.7 µM; in the assay on SF-295 CNS, above 100 µM; in the assay with NCI/ADR-RES ovarian it was 51.5 µM; in the assay with OVCAR-5 ovarian, 35.3 µM; in the assay on MOLT-4 leukemia, 6.08 µM. For the same molecule, the TGI is 46.9 µM with EKVX NSCLC; 34.5 µM in the assay with MCF7 breast; 35 µM in the assay with HT29 colon; above 100 µM with SNB-19 CNS; 34.8 µM in the assay on PC-3 prostate; 33 µM in the assay with SN12C renal. Further, the TGI in the assay with U251 CNS was determined as 47.2 µM; in the assay on NCI-H522 lung, 3.75 µM; in the assay with SW-620 colon, 11.1 µM; with HOP-92 NSCLC, 48.9 µM; with MDA-MB-231 breast it was 33.6 µM; in the assay with HCT-116 colon, 26.7 µM.
Turning to `Cn1nnc2c(C(N)=S)ncn2c1=O`, the TGI in the assay on MDA-MB-435, in the assay on UO-31 renal, in the assay on SF-295 CNS, in the assay on NCI/ADR-RES ovarian, with OVCAR-5 ovarian and with MOLT-4 leukemia was above 100 µM throughout. Moreover, the TGI in the assay on EKVX NSCLC, in the assay on MCF7 breast, with HT29 colon, with SNB-19 CNS, with PC-3 prostate and in the assay with SN12C renal was above 100 µM in each case. Also, the TGI in the assay on U251 CNS, in the assay with NCI-H522 lung, in the assay on SW-620 colon, in the assay with HOP-92 NSCLC, with MDA-MB-231 breast and with HCT-116 colon was above 100 µM throughout.

Source of the values: PubChem BioAssay (NCI).
